The text below walks through data of paper PMC6013775, “Inhibition of the key enzyme of sialic acid biosynthesis by C6-Se modified N-acetylmannosamine analogs” (Chemical Science, 2016).

Values joined by “and” are separate entries in the source; they are usually repeats but may differ in a detail not shown here. Identical values can stand only once.

Data set [1] has as its target T1, human GlcNAc kinase (GNK) (Homo sapiens, UniProt Q9UJ70).
T1 construct: GST; made in house; host or cells: Escherichia coli BL21-CodonPlus(DE3)-RIL
Description: GNK inhibition, coupled optical assay. Type of data set: biochemical. From the text:
(§1) With the potent diselenide compound 14b in hand, we further studied the binding properties of this potent MNK inhibitor, which is to our knowledge the strongest MNK inhibitor reported to date. Diselenide 14b inhibited MNK activity in a dose dependent manner (Fig. 2A). […] Additionally, we tested if diselenide 14b influenced the GNE activity of the bifunctional GNE/MNK. […] To evaluate the specificity of the inhibitor towards other sugar kinases, we performed further inhibition studies using human GlcNAc kinase (GNK) and hexokinase (HK) from yeast (details in ESI ^†).
N-Acetylmannosamine kinase and N-acetylglucosamine kinase expression and […]
Human N-acetylmannosamine kinase (MNK) was expressed and purified using an established method.1 Therefore, his-tagged MNK was expressed in BL21-CodonPlus (DE3)-RIL Escherichia coli (Stragene). Purification was performed by Ni-NTA affinity chromatography, and subsequently size exclusion chromatography on a SuperdexTM HighLoad 16/600 column (GE Healthcare). […]
Evaluation MNK activity in presence of the compounds 11, 12, 14b, 16b and 18b The effects of compounds 11, 12, 14b, 16b, or 18b on MNK enzyme activity were evaluated using a coupled optical assay. […]

Data set [2] has as its target hexokinase (HK) from yeast. The data set can be described thus: Hexokinase inhibition, coupled optical assay. The class given is biochemical. Particulars: glucose substrate.
Text: as §1
Enzyme activity and inhibition studies using N-acetylmannosamine kinase, N-acetylglucosamine kinase and yeast hexokinase
Evaluation MNK activity in presence of the compounds 11, 12, 14b, 16b and 18b The effects of compounds 11, 12, 14b, 16b, or 18b on MNK enzyme activity were evaluated using a coupled optical assay. 55 µl reaction mixture contained the following buffers and reagents: 39.5 µl buffer A (65 mM MgCl2, 200 mM Tris-HCl, pH 8.1), 5 µl ATP (50 mM), 3.5 µl NADH (30 mM), 2 µl phosphoenolpyruvate (100 mM), 2 U pyruvate-kinase, 2 U lactate-dehydrogenase, 5 µl ManNAc of varying concentrations. Subsequently, 10 µl of the compounds 11, 12, 14b, 16b and 18b were added in varying concentrations. The reaction was initiated by adding 0.6 µg MNK in 35 µL buffer B (10 mM Tris-HCl, 150 mM NaCl, pH 8.0). […]

A short description of data set [3]: Stability of the diselenide towards thiol reducing agents, 77Se NMR. The class given is physicochemical. How it is done: At this stage, we also wanted to evaluate the stability of the diselenide 14b in presence of thiol-containing reducing agents like dithiothreitol (DTT) or glutathione (GSH) to address the application of our compounds in living cells. Therefore, the possible reduction of the diselenide bond was monitored by ^77Se NMR using a solution of 60 mM concentration of 14b in an aqueous saturated DTT solution at room temperature. Immediately after the addition of 14b to the DTT solution, a characteristic signal for the selenol compound at –48.1 ppm was observed and a major peak at 294 ppm related to the diselenide. Concretely, the integration of diselenide/selenol peaks gave a 90 : 10 ratio (details in ESI ^†).

T1 sequence (Q9UJ70 whole entry): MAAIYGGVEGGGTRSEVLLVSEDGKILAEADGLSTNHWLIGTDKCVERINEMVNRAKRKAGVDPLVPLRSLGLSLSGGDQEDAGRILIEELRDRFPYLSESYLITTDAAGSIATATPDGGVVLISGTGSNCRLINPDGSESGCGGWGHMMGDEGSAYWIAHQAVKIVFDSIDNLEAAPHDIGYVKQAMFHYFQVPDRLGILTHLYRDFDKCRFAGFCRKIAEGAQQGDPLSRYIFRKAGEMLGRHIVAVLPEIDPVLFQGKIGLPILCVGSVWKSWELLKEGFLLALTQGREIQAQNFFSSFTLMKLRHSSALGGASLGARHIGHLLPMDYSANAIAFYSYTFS

Take `CC(=O)N[C@@H]1C(O)O[C@H](C[Se][Se]C[C@H]2OC(O)[C@@H](NC(C)=O)[C@@H](O)[C@@H]2O)[C@@H](O)[C@@H]1O` (stereo partly shown) [Compound 14b]: the IC50 (as a rule, the concentration that inhibits the measured activity by half) in data set [1] was ~1700 µM and 1700 µM; in data set [2], above 5000 µM. In addition, the “species detected by 77Se NMR” value in data set [3] (60 mM in aqueous saturated DTT solution, between 15 min and 5 h) was “only signals from the diselenide were detected”; in data set [3] (60 mM in saturated GSH solution), “only diselenide 14b was detected”.
